Entries after “also recorded” stand apart in the source; their conditions may differ.
How the values were obtained:
[1] = system: 1 kb Plus DNA Latter in agarose gel; assay: Post-DNA gel staining
Procedure: Serial two-fold dilutions of 1 kb Plus DNA Latter from Invitrogen Co. (Carlsbad, Calif.) were made and the resulting DNA samples were loaded onto an agarose gel in four lanes from left to right with a loading of 200 ng, 100 ng, 50 ng, and 25 ng per lane, respectively. The DNA samples were electrophoretically separated in 1×TBE buffer using a standard protocol. The nucleic acid sample was loaded onto the gel from in four columns from left to right with a loading of 200 ng, 100 ng, 50 ng, and 25 ng per lane, respectively, and electrophoretically separated in 1×TBE buffer using a standard protocol. A stock solution of a Dye No. 20 of Table 1 in DMF at about 12 mM concentration was prepared. […] The agarose gel was submerged in the staining solution for approximately 30 minutes to stain the gel. The resulting gel was then viewed using a UV transilluminator with 254 nm excitation.
A similar procedure was followed to prepare post gel staining solutions of Dye No. 29 of Table 1, except that Dye No. 29 was used in place of Dye No. 20 and at various conditions, as now described. […] Identical DNA samples were prepared, loaded onto three separate agarose gels, and separated via standard gel electrophoreses, in the manner described above. Each of the three separate gels was then stained by immersion in a different one of the resulting gels for about 30 minutes. […]

[2] = system: Salmonella typhimurium bacteria, strain TA98; assay: Mutagenicity assay, Muta-ChromoPlate test kit (based on the Ames Test, bacterial reverse mutation); conditions: for Mutagenicity relative to the negative control: in the absence of S9 extract; for Positive wells: with S9 extract (rat liver); for Positive wells / Positive wells, Exp 1 / Positive wells, Exp 2: positive wells out of 36, TA98; for Positive wells, Exp 1 / Positive wells, Exp 2: without S9 extract
From the text: The test kit is based on the Ames Test, a bacterial reverse mutation test. The test employs a mutant strain, or several strains, of Salmonella typhimurium bacteria, carrying mutation(s) in the operon coding for histidine biosynthesis. When the bacteria are exposed to mutagenic agents under certain conditions, reverse mutation from amino acid (histidine) auxotrophy to prototrophy occurs. […] S9 extract is a rat liver extract that comprises various metabolic enzymes. The tests associated with the presence of S9 extract were undertaken to give information on the potential genotoxicity of the metabolized dyes. […] Each single test was carried out using 36 wells and the number of positive wells out of each 36 wells was taken as an indicator of the relative mutagenicity levels of the dye under the test conditions. As a negative control, bacteria were also incubated in the absence of a dye.
Mutagenicity assays were carried out using a Muta-ChromoPlate test kit from EBPI (Brampton, Ontario, Canada). […] A solution without a dye (zero dose level) was assayed in the absence and presence of S9 extract, as a control or negative control. S9 extract is a rat liver extract that comprises various metabolic enzymes. The tests associated with the presence of S9 extract were undertaken to provide information on the potential genotoxicity of the metabolized dyes. […] Each single test was carried out using 36 wells and the number of positive wells out of each 36 wells was taken as an indicator of the relative mutagenicity levels of the dye under the test conditions.

[3] = system: 1 kb Plus DNA Latter in agarose gel; assay: Pre-cast DNA gel staining; conditions: 1.2 μM in TBE versus EB 1.3 μM; 300 nm UV
Procedure: An agarose gel solution (1% agarose) was prepared following a standard protocol (J. Roskams et al., Lab Ref: A Handbook of Recipes, Reagents, and Other Reference Tools for Use at the Bench, Cold Spring Harbor Laboratory Press, Cold Spring Harbor, N.Y., 2002). A stock solution of a Dye No. 35 (ET-27) of Table 1 in DMF at 12 mM concentration was prepared. An aliquot of the stock solution of dye was added to the gel solution, while it was hot, resulting in an effective working concentration of the dye of about 1.2 μM. The resulting solution was thoroughly mixed by swirling. The resulting gel solution was poured onto a gel slab to cast the gel. Serial two-fold dilutions of 1 kb Plus DNA Latter from Invitrogen Co. (Carlsbad, Calif.) were made and the resulting DNA samples were loaded onto the gel in four lanes from left to right with a loading of 200 ng, 100 ng, 50 ng, and 25 ng per lane, respectively. The DNA samples were electrophoretically separated in 1×TBE buffer using a standard protocol. The resulting gel was then viewed using a UV transilluminator with 300 nm excitation. The same procedure was followed using a stock solution of EB at about 0.5 μg/mL (or 1.3 μM) in DMF in place of the stock solution of Dye No. 35 of Table 1.
It should be noted that other dyes described herein may be prepared and employed in the manner described in this Example 49, or a similar manner.

[4] = Stability in TBE buffer, optical density at absorption maximum over 24 hours; type: physicochemical; conditions: 1.2 μM in 1×TBE buffer, room temperature, monitored at 500 nm
Procedure: SYBR Gold 10,000× in DMSO from Molecular Probes, Inc. (Eugene, Oreg.) was diluted to 1× working concentration, as recommended by the manufacturer, in 1×TBE buffer. A stock solution of Dye No. 35 of Table 1 in DMSO (12 mM) was diluted to 1.2 μM in 1×TBE buffer. The optical density associated with each of the solutions was monitored at the absorption maximum of the dye (488 nm for SYBR Gold and 500 nm for Dye No. 35) over the course of a 24-hour period at room temperature.

[5] = Hydrolytic, thermal and storage stability in water, electrophoresis buffers and pre-cast gels; type: physicochemical
[6] = system: Salmonella typhimurium bacteria, strain TA98; conditions: cited from earlier work
[7] = cited from earlier work
[8] = pre-cast gel prepared with the dye

| SMILES | Mutagenicity relative to the negative control [2] | Positive wells ([2]; 0.25 nmole) | Positive wells ([2]; 2.5 nmoles) | Positive wells ([2]; 25 nmoles) | Positive wells, Exp 1 ([2]; 0.25 nmole) | Positive wells, Exp 2 ([2]; 0.25 nmole) | Positive wells, Exp 1 ([2]; 2.5 nmoles) | Positive wells, Exp 2 ([2]; 2.5 nmoles) | Positive wells, Exp 1 ([2]; 25 nmoles) | Positive wells, Exp 2 ([2]; 25 nmoles) | further results |
| --- | --- | --- | --- | --- | --- | --- | --- | --- | --- | --- | --- |
| C[n+]1c(C=C2C=CN(CCCCCC(=O)NCCCOCCOCCOCCCNC(=O)CCCCCN3C=CC(=Cc4sc5ccccc5[n+]4C)c4ccccc43)c3ccccc32)sc2ccccc21 [Dye No. 29, TOTO-13] | – | – | – | – | – | – | – | – | – | – | Sensitivity in post-DNA gel staining versus SYBR Safe and SYBR Green I ([1]; dye 3.6 μM, SYBR dyes 1× in TBE, 200-25 ng DNA per lane, 254-nm UV transilluminator): substantially more sensitive than SYBR Safe and is as sensitive as SYBR Green I |
| Nc1ccc2c(c1)c(-c1ccccc1)[n+](CCCCCC(=O)NCCCOCCOCCOCCCNC(=O)CCCCC[n+]1c(-c3ccccc3)c3cc(N)ccc3c3ccc(N)cc31)c1cc(N)ccc21 [Dye No. 35, ET-27] | very weak mutagenicity | 0 | 9 | 0 | 2 | 0 | 1 | 3 | 1 | 3 | Toxicity and mutagenicity, overall statement ([2]; comparison of Dye No. 35 with EB): relatively low in toxicity and mutagenicity; also recorded: may be less mutagenic than EB; Sensitivity with respect to low level DNA, relative to EB [3]: more sensitive with respect to low level DNA; Sensitivity with respect to shorter DNA fragments, relative to EB [3]: more sensitive with respect to shorter DNA fragments; Absorbance over the 24-hour period [4]: relatively constant; Time heated in a microwave oven without decomposition ([5]; dye in TBE buffer): 10 min; Storage time of pre-cast gel without loss of performance [5, 8]: 3 months; Time stable in an electrophoresis buffer, such as TBE buffer ([5]; room temperature): 6 months |
| CC[n+]1c(-c2ccccc2)c2cc(N)ccc2c2ccc(N)cc21 [EB, ethidium bromide, reference compound] | very weak mutagenicity | 22 | 17 | 16 | 0 | 0 | 0 | 3 | 0 | 3 | Mutagenicity ([2]; in the presence of S9 extract): significantly greater mutagenicity than Dye No. 35; Frame shift mutagenicity in Ames Test (known) [6]: known frame shift mutagen |
| CCCN(CCCN(C)C)c1cc(/C=C2/Sc3ccccc3N2C)c2ccccc2[n+]1-c1ccccc1 [SYBR Green I] | – | – | – | – | – | – | – | – | – | – | DNA band brightness in post-DNA gel staining ([1]; staining solution in 1×TBE that lacked NaCl): relatively weaker or less bright DNA bands overall; Hydrolytic stability ([7]; aqueous solution, particularly buffers having a pH of 7 or more): hydrolytically unstable; Time within which pre-cast gel is used before losing utility [7, 8]: 24 h |
